Assay results as given in patent US20240083885A1, “COMPOSITIONS AND METHODS FOR INHIBITING M PRO PROTEASE ACTIVITY AND FOR PREVENTING AND TREATING SARS-COV-2 INFECTION” (priority 2020, published 2024).
“And” between values parts separate entries of the source, which are not always exact repeats. Identical values can stand only once. Like-named read-outs stand apart in the source and are kept apart here.

Legend:
SARS-CoV-2 M^pro [1] = molecular target: T1, SARS-CoV-2 M^pro (Severe acute respiratory syndrome coronavirus 2 (2019-nCoV) (SARS-CoV-2), UniProt P0DTD1); assay: biochemical
SARS-CoV M^pro = SARS-CoV M^pro (Severe acute respiratory syndrome coronavirus (SARS-CoV), UniProt P0C6X7); assay: biochemical
[2] = molecular target: SARS-CoV-2 papain-like protease (PL^pro) (Severe acute respiratory syndrome coronavirus 2 (2019-nCoV) (SARS-CoV-2), UniProt P0DTD1); assay: biochemical
SARS-CoV-2 M^pro [3] = molecular target: T1, SARS-CoV-2 M^pro; assay: biochemical; format: binding
SARS-CoV-2 M^pro [4] = molecular target: T1, SARS-CoV-2 M^pro; format: binding; conditions: for mass modification (mass shift) of M^pro adduct: native mass spectrometry, covalent adduct
SARS-CoV-2 [5] = assay: microbe, parasite or virus in culture; format: cell-based; conditions: Severe acute respiratory syndrome coronavirus 2, Vero C1008; read-out: antiviral EC50 against SARS-CoV-2 in Vero E6 cells
SARS-CoV-2 M^pro [6] = molecular target: T1, SARS-CoV-2 M^pro; assay: biochemical; remark: listed apart in the source
SARS-CoV-2 M^pro [7] = molecular target: T1, SARS-CoV-2 M^pro; assay: cell-based
SARS-CoV-2 [8] = assay: microbe, parasite or virus in culture; format: cell-based; conditions: Severe acute respiratory syndrome coronavirus 2; read-out: antiviral EC50 against SARS-CoV-2 in Caco2-hACE2 cells
in vitro [9] = conditions: African green monkey, CC50 in Vero E6 cells
in vitro [10] = conditions: human, CC50 in Calu-3 cells
Calu-3 cells = conditions: human, 5 days
calpain I = calpain I (Homo sapiens (Human), UniProt P07384); assay: Host protease FRET-based enzymatic assay: calpain I; format: biochemical
Method: (§1) Enzymatic reactions against host proteases (Calpain I, Cathepisn K, Cathespsin L, Caspase-3 and Trypisn) were carried out as previously described (see, Xia, Z.; et al., ACS Pharmacol. Transl. Sci. 2021). Cathepsin B assay reaction was carried out as follows: Cathepsin B (catalog no. CTB-H5222) was diluted into 100 nM final concentration in a buffer containing 20 mM sodium acetate pH5.5, 1 mM EDTA and 2 mM DTT and the mixture was incubated for 30 min at 30° C. Activated Cathepsin B was further diluted to 500 pm in the reaction buffer (100 mM MES pH6.0, 1 mM EDTA, 2 mM DTT and 0.01% TWEEN 20).

Cathepsin B [11] = molecular target: T2, Cathepsin B (Homo sapiens (Human), UniProt P07858); assay: Host protease FRET-based enzymatic assay: cathepsin B; format: biochemical
Method: as §1

cathepsin K = cathepsin K (Homo sapiens (Human), UniProt P43235); format: biochemical
Cathepsin L [12] = molecular target: T3, Cathepsin L (Homo sapiens (Human), UniProt P07711); assay: Host protease FRET-based enzymatic assay: cathepsin L; format: biochemical
Method: The cathepsin L enzymatic assay was carried out as follows: human liver cathepsin L (EMD Millipore 219402) was activated by incubating at reaction buffer (20 mM sodium acetate, 1 mM EDTA and 5 mM DTT pH5.5) for 30 min at 30° C. Upon activation, the assay was assembled in 96-well plates with 100 μl of 300 pM cathepsin L protein in cathepsin L reaction buffer. Then 1 μl testing compound at various concentrations was added to each well and incubated at 30° C. for 30 min. The enzymatic reaction was initiated by adding 1 μl of 100 μM FRET substrate Z-Phe-Arg-AMC (the final substrate concentration is about 1 μM). The reaction was monitored in a Cytation 5 image reader with filters for excitation at 360/40 nm and emission at 460/40 nm at 30° C. for 1 hr. The IC50 values were calculated as described in above section.
as §1

caspase-3 = caspase-3 (Homo sapiens (Human), UniProt P42574); assay: Host protease FRET-based enzymatic assay: caspase-3; format: biochemical
Method: as §1

trypsin = assay: Host protease FRET-based enzymatic assay: trypsin; format: biochemical
[13] = Cytotoxicity in Vero E6 cells (neutral red uptake); conditions: African green monkey, CC50 in Vero E6 cells
SARS-CoV-2 [14] = assay: microbe, parasite or virus in culture; format: cell-based; conditions: Severe acute respiratory syndrome coronavirus 2, Calu-3; read-out: antiviral EC50 against SARS-CoV-2 in Calu-3 cells
Cathepsin L [15] = molecular target: T3, Cathepsin L; conditions: cited from earlier work
Cathepsin B [16] = molecular target: T2, Cathepsin B; conditions: cited from earlier work
[17] = read-out: IC50 against SARS-CoV-2 M^pro
[18] = read-out: Additional off targets: Cathepsin B IC50

T3 sequence (P07711 114-333 limits assumed): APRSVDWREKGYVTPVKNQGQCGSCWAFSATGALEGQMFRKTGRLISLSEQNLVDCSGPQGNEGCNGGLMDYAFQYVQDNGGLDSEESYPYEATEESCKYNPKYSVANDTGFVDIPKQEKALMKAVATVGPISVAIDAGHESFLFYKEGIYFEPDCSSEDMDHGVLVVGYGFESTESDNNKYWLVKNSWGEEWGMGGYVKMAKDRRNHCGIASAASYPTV
Chain of cathepsin K (P43235 115-329 limits assumed): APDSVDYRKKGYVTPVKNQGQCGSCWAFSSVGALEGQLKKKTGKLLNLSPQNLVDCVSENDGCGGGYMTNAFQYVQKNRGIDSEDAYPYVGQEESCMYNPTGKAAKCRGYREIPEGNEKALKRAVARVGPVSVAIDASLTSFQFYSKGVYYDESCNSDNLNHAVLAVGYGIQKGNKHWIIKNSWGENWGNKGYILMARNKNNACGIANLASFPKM
Chain of caspase-3 (P42574 29-175 limits assumed): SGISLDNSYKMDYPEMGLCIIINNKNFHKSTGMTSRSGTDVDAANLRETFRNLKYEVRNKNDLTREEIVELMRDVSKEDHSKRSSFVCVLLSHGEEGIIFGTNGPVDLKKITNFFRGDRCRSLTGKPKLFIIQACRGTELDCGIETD
Chain of caspase-3 (P42574 176-277 limits assumed): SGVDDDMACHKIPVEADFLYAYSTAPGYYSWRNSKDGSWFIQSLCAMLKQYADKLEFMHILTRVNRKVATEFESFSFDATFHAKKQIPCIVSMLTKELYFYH

C[C@H](NC(=O)C(c1cccnc1)N(C(=O)c1ccco1)c1ccc(-c2ccccc2)cc1)c1ccccc1 (single isomer, unassigned) [Compound 23R]
change of IC50 with pre-incubation time (SARS-CoV-2 M^pro [1]): did not lead to significant changes of the IC50 value | IC50 (SARS-CoV-2 M^pro [1]; IC50 against SARS-CoV-2 M^pro): 0.15 µM and 0.13 µM | EC50 (SARS-CoV-2 M^pro [1]; SARS-COV-2 main protease enzymatic inhibition (separated diastereomers, printed as EC50)): 150 nM | IC50 (SARS-CoV-2 M^pro [1]; SARS-CoV-2 M^pro IC50 (μM)): 0.15 ± 0.03 µM | IC50 (SARS-CoV M^pro): 270 ± 30 nM | IC50 ([2]; IC50 against SARS-CoV-2 papain-like protease (PL^pro)): > 20 µM | IC50 ([2]; SARS-CoV-2 PL^pro IC50 (μM)): > 60 µM | Kd (SARS-CoV-2 M^pro [3]): 9430 nM | binding to SARS-CoV-2 M^pro in native mass spectrometry (SARS-CoV-2 M^pro [4]): dose-dependent binding

C[C@@H](CCc1ccccc1)NC(=O)[C@@H](c1cccnc1)N(C(=O)C(Cl)Cl)c1ccc(-c2ccccc2)cc1 (single isomer, unassigned) [Jun9-90-4R]
IC50 (SARS-CoV-2 M^pro [1]; [17]): 0.46 µM | EC50 (SARS-CoV-2 [5]): 1100 nM | kinact/KI (SARS-CoV-2 M^pro [6]): 867 M⁻¹ s⁻¹ | EC50 (SARS-CoV-2 M^pro [7]): 1570 nM | EC50 (SARS-CoV-2 [8]): 1430 nM | CC50 at 5 days (in vitro [9]): > 100000 nM

C[C@H](NC(=O)[C@H](c1cccnc1)N(C(=O)CCl)c1ccc(-n2cccc2)cc1)c1ccccc1 (stereo in doubt) [Jun9-57-3S]
IC50 (SARS-CoV-2 M^pro [1]; [17]): 1.13 µM | CC50 at 5 days (in vitro [9]): < 11000 nM | CC50 at 5 days (in vitro [10]): < 2000 nM

C[C@H](NC(=O)C(c1cccnc1)N(C(=O)CCl)c1ccc(-c2ccccc2)cc1)c1ccccc1 (stereo partly drawn) [Jun9-54-1, 2-(N-{[1,1′-biphenyl]-4-yl}-2-chloroacetamido)-N-[(1S)-1-phenylethyl]-2-(pyridin-3-yl)acetamide]
IC50 (SARS-CoV-2 M^pro [1]; [17]): 0.17 µM | CC50 (Calu-3 cells): < 3500 nM | CC50 at 5 days (in vitro [10]): < 2000 nM

O=C(NC1CCCCC1)C(c1cccnc1)N(C(=O)CCl)c1ccc(-c2ccccc2)cc1 (centres unmarked) [Jun9-55-2, N-([1,1′-biphenyl]-4-yl)-2-chloro-N-(2-(cyclohexylamino)-2-oxo-1-(pyridin-3-yl)ethyl)acetamide]
CC50 at 5 days (in vitro [9]): < 11000 nM | CC50 at 5 days (in vitro [10]): < 2000 nM

O=C(NC1CC1)C(c1cccnc1)N(C(=O)CCl)c1ccc(-c2ccccc2)cc1 (centres unmarked) [Jun9-57-2, N-([1,1′-biphenyl]-4-yl)-2-chloro-N-(2-(cyclopropylamino)-2-oxo-1-(pyridin-3-yl)ethyl)acetamide]
CC50 at 5 days (in vitro [9]): < 11000 nM | CC50 at 5 days (in vitro [10]): < 2000 nM

C[C@H](NC(=O)[C@@H](c1cccnc1)N(C(=O)CCl)c1ccc(-n2cccc2)cc1)c1ccccc1 [Jun9-57-3R, N-(4-(1H-pyrrol-1-yl)phenyl)-2-chloro-N-((R)-2-oxo-2-(((S)-1-phenylethyl)amino)-1-(pyridin-3-yl)ethyl)acetamide]
IC50 (SARS-CoV-2 M^pro [1]; [17]): 0.05 µM | CC50 at 5 days (in vitro [9]): < 11000 nM | CC50 at 5 days (in vitro [10]): < 2000 nM

C[C@H](NC(=O)C(c1cnccn1)N(C(=O)CCl)c1ccc(-c2ccccc2)cc1)c1ccccc1 (stereo partly drawn) [Jun9-59-1, 2-(N-{[1,1′-biphenyl]-4-yl}-2-chioroacetamido)-N-[(1S)-1-phenylethyl]-2-(pyrazin-2-yl)acetamide]
CC50 at 5 days (in vitro [9]): < 11000 nM | CC50 at 5 days (in vitro [10]): < 2000 nM

CC#CC(=O)N(c1ccc(-c2ccccc2)cc1)C(C(=O)N[C@@H](C)c1ccccc1)c1cccnc1 (stereo partly drawn) [Jun9-62-1, N-([1,1′-hiphenyl]-4-yl)-N-(2-oxo-2-(((S)-1-phenylethyl)amino)-1-(pyridin-3-yl)ethyl)but-2-ynamide]
IC50 (SARS-CoV-2 M^pro [1]; [17]): 1.15 µM | CC50 at 5 days (in vitro [9]): 18000 nM | CC50 at 5 days (in vitro [10]): 47800 nM

C[C@H](NC(=O)[C@@H](c1cccnc1)N(C(=O)C(Cl)Cl)c1ccc(-c2ccccc2)cc1)c1ccccc1 [Jun9-62-2R, N-([1,1′-biphenyl]-4-yl)-2,2-dichloro-N-((R)-2-oxo-2-(((S)-1-phenylethyl)amino)-1-(pyridin-3-yl)ethyl)acetamide]
change of IC50 with pre-incubation time (SARS-CoV-2 M^pro [1]): longer pre-incubation time gave lower IC50 values | EC50 (SARS-CoV-2 [5]): 900 nM | EC50 (SARS-CoV-2 M^pro [7]): 960 nM | EC50 (SARS-CoV-2 [8]): 2050 nM | inhibition of calpain I (calpain I): did not show potent inhibition | inhibition of cathepsin B (Cathepsin B [11]): did not show potent inhibition | inhibition of cathepsin K (cathepsin K): did not show potent inhibition | inhibition of cathepsin L (IC50) (Cathepsin L [12]): did not show potent inhibition | inhibition of caspase-3 (IC50) (caspase-3): did not show potent inhibition | inhibition of trypsin (IC50) (trypsin): did not show potent inhibition | CC50 at 5 days [13]: > 100000 nM

C[C@H](NC(=O)[C@@H](c1cccnc1)N(C(=O)C(Br)(Br)Br)c1ccc(-c2ccccc2)cc1)c1ccccc1 [Jun9-88-6R, N-([1,1′-biphenyl]-4-yl)-2,2,2-tribromo-N-((R)-2-oxo-2-(((S)-1-phenylethyl)amino)-1-(pyridin-3-yl)ethyl)acetamide]
IC50 (SARS-CoV-2 M^pro [1]; [17]): 0.08 µM | EC50 (SARS-CoV-2 [5]): 580 nM | mass modification (mass shift) of M^pro adduct (SARS-CoV-2 M^pro [4]): 526 Da | kinact/KI (SARS-CoV-2 M^pro [6]): 7070 M⁻¹ s⁻¹ | EC50 (SARS-CoV-2 M^pro [7]): 920 nM | EC50 (SARS-CoV-2 [8]): 2150 nM | inhibition of calpain I (calpain I): did not show potent inhibition | inhibition of cathepsin B (Cathepsin B [11]): did not show potent inhibition | inhibition of cathepsin K (cathepsin K): did not show potent inhibition | IC50 (Cathepsin L [12]): 7370 nM | selectivity for inhibiting SARS-CoV-2 M^pro over cathepsin L (Cathepsin L [12]): 94 fold | inhibition of caspase-3 (IC50) (caspase-3): did not show potent inhibition | inhibition of trypsin (IC50) (trypsin): did not show potent inhibition | CC50 at 5 days (in vitro [9]): 5480 nM

C[C@H](NC(=O)[C@@H](c1cccnc1)N(C(=O)C(Br)Br)c1ccc(-c2ccccc2)cc1)c1ccccc1 [Jun9-89-2R]
IC50 (SARS-CoV-2 M^pro [1]; IC50 against SARS-CoV-2 M^pro): 0.08 µM | mass modification (mass shift) of M^pro adduct (SARS-CoV-2 M^pro [4]): 526 Da | CC50 at 5 days (in vitro [9]): 8940 nM

C[C@H](NC(=O)[C@@H](c1cccnc1)N(C(=O)C(Cl)(Br)Br)c1ccc(-c2ccccc2)cc1)c1ccccc1 [Jun9-89-4R, N-([1,1′-biphenyl]-4-yl)-2,2-dibromo-2-chloro-N-((R)-2-oxo-2-(((S)-1-phenylethyl)amino)-1-(pyridin-3-yl)ethyl)acetamide]
IC50 (SARS-CoV-2 M^pro [1]; [17]): 0.05 µM | mass modification (mass shift) of M^pro adduct (SARS-CoV-2 M^pro [4]): 481 Da and 561 Da | CC50 at 5 days (in vitro [9]): 8410 nM

C[C@H](NC(=O)[C@@H](c1cccnc1)N(C(=O)C(Cl)Cl)c1ccc(-c2ccccc2)cc1)c1ccc(Br)cc1 [Jun9-90-3R]
IC50 (SARS-CoV-2 M^pro [1]; [17]): 0.3 µM | EC50 (SARS-CoV-2 [5]): 2070 nM | kinact/KI (SARS-CoV-2 M^pro [6]): 1540 M⁻¹ s⁻¹ | EC50 (SARS-CoV-2 M^pro [7]): 910 nM | EC50 (SARS-CoV-2 [8]): 3240 nM | EC50 (SARS-CoV-2 [14]): 2000 nM | CC50 at 5 days (in vitro [9]): > 100000 nM

C[C@@H](OC(C)(C)C)[C@H](NC(=O)OCc1ccccc1)C(=O)N[C@@H](CC1CCCCC1)C(=O)N[C@H](C=O)C[C@@H]1CCNC1=O [MPI8]
IC50 (Cathepsin L [15]; read-out: Cathepsin L IC50): 1.2 nM | IC50 (Cathepsin L [15]; read-out: IC50 cathepsin L (recent study)): 230 nM | IC50 (Cathepsin B [16]; [18]): 230 nM | IC50 (Cathepsin B [16]; read-out: IC50 cathepsin B (recent study)): 1.2 nM

PF-00835231
IC50 (Cathepsin L [15]; read-out: Cathepsin L IC50): 146 nM | IC50 (Cathepsin B [16]; [18]): 1300 nM
